Common to all, as to assay type: functional
The subject of one experiment is Staphylococcus aureus. Nature of the experiment: Antimicrobial activity against macrolide-sensitive Staphylococcus aureus ATCC 13709.
Experiment [1] deals with Streptococcus pyogenes. Nature of the experiment: Antimicrobial activity against macrolide-sensitive Streptococcus pyogenes 3665.
Experiment [2] has as its system Streptococcus pneumoniae. Nature of the experiment: Antimicrobial activity against inducible macrolide and constitutive lincosamide, streptogramin-resistant Streptococcus pneumoniae 4636.
For experiment [3], the system named is Streptococcus pneumoniae. Nature of the experiment: Antimicrobial activity against macrolide-resistant Streptococcus pneumoniae Ci137.
In the next experiment the test system is Haemophilus influenzae. Nature of the experiment: Antimicrobial activity against Haemophilus influenzae ATCC 49247.
In experiment [4] the test system is Streptococcus pneumoniae. Nature of the experiment: Antimicrobial activity against macrolide-sensitive Streptococcus pneumoniae SPO 30.
Experiment [5] concerns Streptococcus pyogenes. Nature of the experiment: Antimicrobial activity against inducible macrolide, lincosamide, streptogramin-resistant Streptococcus pyogenes Finland 11.

Molecules are shown by their SMILES. Values after ≈ are worked out from the molar mass of the structure shown.

`CC[C@H]1OC(=O)[C@H](C)[C@@H](O[C@H]2C[C@@](C)(OC)[C@@H](OC(=O)CCN[C@H](C)c3ccc([N+](=O)[O-])cc3)[C@H](C)O2)[C@H](C)[C@@H](O[C@@H]2O[C@H](C)C[C@H](N(C)C)[C@H]2O)[C@](C)(OC)C[C@@H](C)NC(=O)[C@H](C)[C@@H](O)[C@]1(C)O`: the MIC in the experiment with Staphylococcus aureus was 1 µg/mL (≈ 1.02 µM); with Streptococcus pyogenes [1], below 0.13 µg/mL; against Streptococcus pneumoniae [2], above 32 µg/mL; with Streptococcus pneumoniae [3], 2 µg/mL (≈ 2.03 µM); in the experiment with Haemophilus influenzae, 32 µg/mL (≈ 32.5 µM); with Streptococcus pneumoniae [4], below 0.13 µg/mL. This compound gave an MIC against Streptococcus pyogenes [5] of 4 µg/mL (≈ 4.07 µM).

For the compound `CC[C@H]1OC(=O)[C@H](C)[C@@H](O[C@H]2C[C@@](C)(OC)[C@@H](OC(=O)CCN3CCN(c4ccc([N+](=O)[O-])cc4)CC3)[C@H](C)O2)[C@H](C)[C@@H](O[C@@H]2O[C@H](C)C[C@H](N(C)C)[C@H]2O)[C@](C)(OC)C[C@@H](C)NC(=O)[C@H](C)[C@@H](O)[C@]1(C)O`, the MIC was 2 µg/mL (≈ 1.95 µM) against Staphylococcus aureus; below 0.13 µg/mL in the experiment with Streptococcus pyogenes [1]; 8 µg/mL (≈ 7.81 µM) with Streptococcus pneumoniae [2]; 1 µg/mL (≈ 0.976 µM) against Streptococcus pneumoniae [3]; 2 µg/mL (≈ 1.95 µM) in the experiment with Haemophilus influenzae; below 0.13 µg/mL against Streptococcus pneumoniae [4]. For the same compound, in the experiment on Streptococcus pyogenes [5], the MIC was determined as 8 µg/mL (≈ 7.81 µM).

With `CC[C@H]1OC(=O)[C@H](C)[C@@H](O[C@H]2C[C@@](C)(OC)[C@@H](OC(=O)CCN[C@@H](C)C(=O)Nc3ccc([N+](=O)[O-])cc3)[C@H](C)O2)[C@H](C)[C@@H](O[C@@H]2O[C@H](C)C[C@H](N(C)C)[C@H]2O)[C@](C)(OC)C[C@@H](C)NC(=O)[C@H](C)[C@@H](O)[C@]1(C)O`, the MIC against Staphylococcus aureus is 0.5 µg/mL (≈ 0.487 µM); in the experiment on Streptococcus pyogenes [1] it was below 0.13 µg/mL; against Streptococcus pneumoniae [2] it was 16 µg/mL (≈ 15.6 µM); with Streptococcus pneumoniae [3] it was 0.5 µg/mL (≈ 0.487 µM); against Haemophilus influenzae, 2 µg/mL (≈ 1.95 µM); in the experiment on Streptococcus pneumoniae [4] it was below 0.13 µg/mL. In addition, in the experiment on Streptococcus pyogenes [5], the MIC was found to be 1 µg/mL (≈ 0.974 µM).

As to `CC[C@H]1OC(=O)[C@H](C)[C@@H](O[C@H]2C[C@@](C)(OC)[C@@H](OC(=O)CCNCC(=O)Nc3ccc([N+](=O)[O-])cc3)[C@H](C)O2)[C@H](C)[C@@H](O[C@@H]2O[C@H](C)C[C@H](N(C)C)[C@H]2O)[C@](C)(OC)C[C@@H](C)NC(=O)[C@H](C)[C@@H](O)[C@]1(C)O`, the MIC was 1 µg/mL (≈ 0.988 µM) in the experiment on Staphylococcus aureus; below 0.13 µg/mL against Streptococcus pyogenes [1]; 16 µg/mL (≈ 15.8 µM) in the experiment with Streptococcus pneumoniae [2]; 2 µg/mL (≈ 1.98 µM) against Streptococcus pneumoniae [3]; 2 µg/mL (≈ 1.98 µM) in the experiment on Haemophilus influenzae; below 0.13 µg/mL in the experiment with Streptococcus pneumoniae [4]. This compound also returned an MIC against Streptococcus pyogenes [5] of 4 µg/mL (≈ 3.95 µM).

`CC[C@H]1OC(=O)[C@H](C)[C@@H](O[C@H]2C[C@@](C)(OC)[C@@H](OC(=O)CCN[C@@H](C)c3ccc([N+](=O)[O-])cc3)[C@H](C)O2)[C@H](C)[C@@H](O[C@@H]2O[C@H](C)C[C@H](N(C)C)[C@H]2O)[C@](C)(O)C[C@@H](C)NC(=O)[C@H](C)[C@@H](O)[C@]1(C)O`: the MIC was 4 µg/mL (≈ 4.13 µM) against Staphylococcus aureus; below 0.13 µg/mL against Streptococcus pyogenes [1]; 16 µg/mL (≈ 16.5 µM) with Streptococcus pneumoniae [2]; 4 µg/mL (≈ 4.13 µM) against Streptococcus pneumoniae [3]; 8 µg/mL (≈ 8.25 µM) against Haemophilus influenzae; below 0.13 µg/mL against Streptococcus pneumoniae [4]. For the same compound, the MIC in the experiment on Streptococcus pyogenes [5] worked out at 4 µg/mL (≈ 4.13 µM).

In the case of `CC[C@H]1OC(=O)[C@H](C)[C@@H](O[C@H]2C[C@@](C)(OC)[C@@H](OC(=O)CCNCCNc3cccc4ccccc34)[C@H](C)O2)[C@H](C)[C@@H](O[C@@H]2O[C@H](C)C[C@H](N(C)C)[C@H]2O)[C@](C)(OC)C[C@@H](C)NC(=O)[C@H](C)[C@@H](O)[C@]1(C)O`, the MIC with Staphylococcus aureus was 1 µg/mL (≈ 0.997 µM); against Streptococcus pyogenes [1], below 0.13 µg/mL; in the experiment with Streptococcus pneumoniae [2], above 32 µg/mL; against Streptococcus pneumoniae [3], 2 µg/mL (≈ 1.99 µM); in the experiment on Streptococcus pneumoniae [4], below 0.13 µg/mL; against Streptococcus pyogenes [5] it was 4 µg/mL (≈ 3.99 µM).

The values are drawn from ChEMBL document CHEMBL1155520, “Novel 8a-aza-8a-homoerythromycin--4''-(3-substituted-amino)propionates with broad spectrum antibacterial activity” (2010).
